# Like-named read-outs stand apart in the source and are kept apart here.
# Experiments:
# Assay in all cases: Secondary dose-response HTS, Cell Titer Glo; call rule not given here
# Assay type in all cases: cell-based, human
# CHRF288-11 = conditions: for EC50: read-out: average effective concentration, CHRF288-11
# CMK = conditions: CMK; for EC50: read-out: average effective concentration, CMK
# M07e = conditions: for EC50: read-out: average effective concentration, M07e
# U937 = test system: U937
# ML2 = test system: ML2
# MOLM-13 = test system: MOLM-13
# CMS = conditions: for EC50: read-out: average effective concentration, CMS
# MV4-11 = test system: MV4-11
# [1] = Homo sapiens, HTS, secondary high-throughput screen, CHRF288-11
# [2] = Homo sapiens, M-07e, secondary high-throughput screen, M07e
# [3] = Homo sapiens, U-937, secondary high-throughput screen, U937, read-out: average effective concentration, U937
# [4] = Homo sapiens, secondary high-throughput screen, ML-2, read-out: average effective concentration, ML-2
# [5] = Homo sapiens, secondary high-throughput screen, MOLM-13, read-out: average effective concentration, MOLM-13
# [6] = Homo sapiens, secondary high-throughput screen, MV4-11, read-out: average effective concentration, MV4-11
# [7] = secondary high-throughput screen, CHRF288-11
# [8] = secondary high-throughput screen
# [9] = secondary high-throughput screen, M07e
# [10] = secondary high-throughput screen, U937, read-out: average effective concentration, U937
# [11] = secondary high-throughput screen, ML-2
# [12] = secondary high-throughput screen, MOLM-13, read-out: average effective concentration, MOLM-13
# [13] = secondary high-throughput screen, CMS
# [14] = Homo sapiens, secondary high-throughput screen
# [15] = Homo sapiens, M-07e, secondary high-throughput screen, […]
# [16] = secondary high-throughput screen, MOLM-13
# [17] = Homo sapiens, HTS, secondary high-throughput screen, CMS
# [18] = secondary high-throughput screen, MV4-11
# [19] = secondary high-throughput screen, U937
# [20] = secondary high-throughput screen, […]
# [21] = secondary high-throughput screen, ML-2, read-out: average effective concentration, ML-2
Molecule,EC50 (CHRF288-11; [1]) [nM],EC50 (U937; [3]) [nM],EC50 (ML2; [4]) [nM],EC50 (MOLM-13; [5]) [nM],"average effective concentration, CHRF288-11 (CHRF288-11; [7])","average effective concentration, M07e (M07e; [9])","average effective concentration, ML-2 (ML2; [11])","average effective concentration, CMS (CMS; [13])","average effective concentration, MOLM-13 (MOLM-13; [16])",EC50 (CMS; [17]) [nM],"average effective concentration, MV4-11 (MV4-11; [18])","average effective concentration, CMK (CMK; [8])","average effective concentration, U937 (U937; [19])",also measured
Cn1cc(-c2[nH]c3cc(NC(=O)[C@H](N)C4CCCCC4)cc4c3c2C=NNC4=O)cn1 [PF-477736],1200,100,28,18,,,,,,,,,,"EC50 (CMK; Homo sapiens): 220 nM; EC50 (M07e; [2]): 240 nM; EC50 (CMS; Homo sapiens, HTS): 6200 nM; EC50 (MV4-11; [6]): 50 nM"
CN(C)C1CCN(C(=O)c2ccc(NC(=O)Nc3ccc(-c4nc(N5CCOCC5)nc(N5CCOCC5)n4)cc3)cc2)CC1 [PF-05212384],,,,,Inactive,Inactive,Inactive,Inactive,,,,,,"EC50 (CMK; [8]): 7700 nM; EC50 (U937; [10]): 24 nM; EC50 (MOLM-13; [12]): 190 nM; EC50 (MV4-11; secondary high-throughput screen, MV4-11, read-out: average effective concentration, MV4-11): 47 nM"
Cc1ccc(C(=O)Nc2ccc(CN3CCN(C)CC3)c(C(F)(F)F)c2)cc1C#Cc1cnc2cccnn12 [PONATINIB],,,,,,,,,,,,,,"EC50 (CHRF288-11; Homo sapiens, HTS): 1000 nM; EC50 (CHRF288-11): 980 nM; EC50 (CMK; Homo sapiens): 1600 nM; EC50 (M07e; Homo sapiens, M-07e): 7000 nM; EC50 (U937; Homo sapiens, U-937, read-out: average effective concentration, U937): 2500 nM; EC50 (ML2; Homo sapiens, ML-2, read-out: average effective concentration, ML-2): 5300 nM; EC50 (MOLM-13; Homo sapiens, MOLM-13, read-out: average effective concentration, MOLM-13): 17 nM; EC50 (CMS; Homo sapiens, HTS): 6700 nM; EC50 (MV4-11; Homo sapiens, MV4-11, read-out: average effective concentration, MV4-11): 11 nM"
COC(=O)[C@]1(C)CC[C@]2(C)CC[C@]3(C)C4=CC=C5C(=CC(=O)C(O)=C5C)[C@]4(C)CC[C@@]3(C)[C@@H]2C1 [PRISTIMERIN],240,800,120,,,,,,Inactive,1500,Inactive,,,EC50 (CMK; [14]): 240 nM; EC50 (M07e; [15]): 4600 nM
O=C(Nc1cc(Cl)cc2c1[nH]c1cnccc12)c1cccnc1 [PS-1145],,,,,Inactive,Inactive,Inactive,Inactive,Inactive,,Inactive,Inactive,Inactive,
O=C1NC(=O)/C(=C/c2cccc(C(F)(F)F)c2)S1 [SMI-4A],,,,,Inactive,Inactive,Inactive,Inactive,Inactive,,Inactive,Inactive,Inactive,
O=C([O-])Cc1ccccc1.[Na+] [SODIUM PHENYLACETATE],,,,,Inactive,,Inactive,Inactive,,,Inactive,Inactive,Inactive,"average effective concentration, M07e (M07e; [20]): Inactive; EC50 (MOLM-13; [12]): 2100 nM"
CCN(CC)CCNC(=O)c1c(C)[nH]c(/C=C2\C(=O)Nc3ccc(F)cc32)c1C [SUNITINIB],490,270,270,19,,,,,,> 10000,,,,EC50 (CMK; [14]): 330 nM; EC50 (M07e; [2]): 460 nM; EC50 (MV4-11; [6]): 34 nM
Nc1nc2nc[nH]c2c(=S)[nH]1 [THIOGUANINE],3500,> 10000,6300,4900,,,,,,> 10000,,,,EC50 (CMK; [14]): 3800 nM; EC50 (M07e; [2]): > 10000 nM; EC50 (MV4-11; [6]): 3000 nM
CC[C@@]1(O)C(=O)OCc2c1cc1n(c2=O)Cc2cc3c(CN(C)C)c(O)ccc3nc2-1 [TOPOTECAN],500,690,250,120,,,,,,7200,,,,EC50 (CMK; [14]): 470 nM; EC50 (M07e; [2]): 1700 nM; EC50 (MV4-11; [6]): 170 nM
COc1cc(NCc2ccc3nc(N)nc(N)c3c2C)cc(OC)c1OC [TRIMETREXATE],7600,> 10000,2900,170,,,,,,1700,,,,EC50 (CMK; [14]): 4200 nM; EC50 (M07e; [2]): 10000 nM; EC50 (MV4-11; [6]): 1800 nM
COc1cc2c(NC3CCN(C)CC3)nc(N3CCCN(C)CC3)nc2cc1OCCCN(C)C [UNC0224],,,,,Inactive,Inactive,Inactive,Inactive,Inactive,,Inactive,Inactive,Inactive,
COc1cc2c(NC3CCN(C)CC3)nc(N3CCCN(C)CC3)nc2cc1OCCOCCN(C)C [UNC0321],,,,,Inactive,Inactive,Inactive,Inactive,Inactive,,Inactive,Inactive,Inactive,
COc1cc2c(NC3CCN(C(C)C)CC3)nc(C3CCCCC3)nc2cc1OCCCN1CCCC1 [UNC0638 HYDRATE],> 10000,4500,> 10000,> 10000,,,,,,6000,Inactive,Inactive,,EC50 (M07e; [15]): 5000 nM
CC[C@]1(O)C[C@H]2CN(CCc3c([nH]c4ccccc34)[C@@](C(=O)OC)(c3cc4c(cc3OC)N(C=O)[C@H]3[C@@](O)(C(=O)OC)[C@H](OC(C)=O)[C@]5(CC)C=CCN6CC[C@]43[C@@H]65)C2)C1 [VINCRISTINE],390,35,8,43,,,,,,230,,,,EC50 (CMK; [14]): > 10000 nM; EC50 (M07e; [2]): 1 nM; EC50 (MV4-11; [6]): 20 nM
CCn1c(=O)c(-c2cc[nH]n2)cc2c(C)nc(N)nc21 [Voxtalisib],,,,,Inactive,Inactive,Inactive,Inactive,Inactive,,Inactive,Inactive,Inactive,
CN1CCc2c(c3ccccc3n2Cc2ccc(C(=O)NO)cc2)C1 [[…]],,,,> 10000,Inactive,,Inactive,Inactive,,,Inactive,Inactive,Inactive,"average effective concentration, M07e (M07e; [20]): Inactive"
(-)-NUTLIN-3,,,,,Inactive,,,Inactive,,,Inactive,Inactive,Inactive,EC50 (M07e; [9]): 160 nM; EC50 (ML2; [21]): 4900 nM; EC50 (MOLM-13; [12]): 940 nM
ANACARDIC ACID,,,,,Inactive,Inactive,Inactive,Inactive,Inactive,,Inactive,Inactive,Inactive,
AZ-20,,,,,,,,,Inactive,,Inactive,Inactive,,EC50 (CHRF288-11; [7]): 2500 nM; EC50 (M07e; [9]): 200 nM; EC50 (U937; [10]): 4700 nM; EC50 (ML2; [21]): 30 nM; EC50 (CMS; [13]): 600 nM
EB-47,,,,,Inactive,Inactive,Inactive,Inactive,Inactive,,Inactive,Inactive,Inactive,
IC-87114,,,,,Inactive,Inactive,Inactive,Inactive,Inactive,,Inactive,Inactive,Inactive,
